# Measured values published in patent publication US4329473A, “Oxoalkanoic acid derivatives as inhibitors of angiotensin converting enzyme” (priority 1980, dated 1982).
# Where a SMILES comes first, the peptide text is derived from it.
# Molecular target: T1, porcine plasma angiotensin-converting enzyme (Sus scrofa, UniProt F1RRW5)
# T1 construct: procine plasma angiotensin-converting enzyme; from tissue; host or cells: porcine plasma
# T1 sequence (F1RRW5 34-1309): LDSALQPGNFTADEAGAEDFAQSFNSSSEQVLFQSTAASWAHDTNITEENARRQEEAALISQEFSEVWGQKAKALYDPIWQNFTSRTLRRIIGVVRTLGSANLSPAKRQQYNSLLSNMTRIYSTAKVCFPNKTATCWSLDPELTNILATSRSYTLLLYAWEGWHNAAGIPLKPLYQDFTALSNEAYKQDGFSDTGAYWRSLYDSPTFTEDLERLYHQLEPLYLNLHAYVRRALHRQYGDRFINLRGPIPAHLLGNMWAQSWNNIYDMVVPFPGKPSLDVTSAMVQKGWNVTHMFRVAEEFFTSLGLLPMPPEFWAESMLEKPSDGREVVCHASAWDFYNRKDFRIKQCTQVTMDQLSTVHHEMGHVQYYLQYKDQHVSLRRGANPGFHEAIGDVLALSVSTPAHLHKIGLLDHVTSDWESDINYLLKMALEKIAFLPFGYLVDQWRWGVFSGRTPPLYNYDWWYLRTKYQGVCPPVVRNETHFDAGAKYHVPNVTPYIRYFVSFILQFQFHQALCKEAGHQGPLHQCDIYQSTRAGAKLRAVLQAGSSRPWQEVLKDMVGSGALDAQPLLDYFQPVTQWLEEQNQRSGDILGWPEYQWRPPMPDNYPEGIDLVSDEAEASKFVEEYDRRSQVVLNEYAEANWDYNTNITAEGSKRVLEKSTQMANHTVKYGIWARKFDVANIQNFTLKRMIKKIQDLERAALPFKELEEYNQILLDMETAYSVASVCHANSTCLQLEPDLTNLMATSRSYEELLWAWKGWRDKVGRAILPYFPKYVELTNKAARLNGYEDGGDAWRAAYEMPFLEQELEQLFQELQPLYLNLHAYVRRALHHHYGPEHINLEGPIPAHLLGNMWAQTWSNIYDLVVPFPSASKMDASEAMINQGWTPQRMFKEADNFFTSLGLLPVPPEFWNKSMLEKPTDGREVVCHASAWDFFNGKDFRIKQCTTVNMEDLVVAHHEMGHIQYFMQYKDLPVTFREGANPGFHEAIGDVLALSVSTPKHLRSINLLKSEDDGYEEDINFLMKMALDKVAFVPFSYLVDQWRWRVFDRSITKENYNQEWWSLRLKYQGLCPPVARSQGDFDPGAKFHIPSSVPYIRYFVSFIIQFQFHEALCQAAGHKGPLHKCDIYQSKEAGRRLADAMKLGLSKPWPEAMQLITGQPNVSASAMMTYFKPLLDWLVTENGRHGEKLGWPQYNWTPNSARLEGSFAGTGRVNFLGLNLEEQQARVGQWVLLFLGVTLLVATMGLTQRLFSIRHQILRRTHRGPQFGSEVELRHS
# Assay: Angiotensin Converting Enzyme Inhibition Assay
# Assay type: biochemical
# Details: compared with Captopril / other examples, Table II
# Description: Said assay is described in the literature as follows: B. S. Tsai, M. J. Peach, M. C.
# The Angiotensin Converting Enzyme Inhibition Assay represents a test procedure in which various compounds are tested for their ability to inhibit the conversion of the decapeptide angiotensin I or the tripeptide hippuryl-histidyl-leucine to its cleavage product, the dipeptide histidyl-leucine. This dipeptide is detected via its fluorescent condensation product with o-phthaladehyde.
# For testing the effect of inhibitors on procine plasma angiotensin-converting enzyme, two assays were run in parallel. One contained the substrate (1-2 mM), enzyme (1 mg) and various concentrations (1 nM-10 mM) of an inhibitor, the other contained only the substrate and enzyme. The assays were conducted in sodium phosphate buffer, pH 7.6, under the conditions described in the article by Tsai, et al., supra.
row,effectiveness in angiotensin converting enzyme inhibition assay (in words),SMILES
1,most effective compound,"CC(CC(=O)C(Cc1ccccc1)NC(=O)c1ccccc1)C(=O)N1CCC[C@H]1C(=O)O (stereo partly drawn) [Example XIII, 5-Benzamido-4-oxo-2-methyl-6-phenylhexanoyl-L-proline]"

# Same assay, conditions: sodium phosphate buffer, pH 7.6; substrate 1-2 mM; inhibitor 1 nM-10 mM
row,IC50,SMILES
1,6500 nM,"CCCCCCCCCC(=O)NC(Cc1ccccc1)C(=O)CCC(=O)N1CCC[C@H]1C(=O)O (stereo partly drawn) [XXI, 5-n-Decanoylamino-4-oxo-6-phenylhexanoyl-L-proline]"
2,46 nM,"Cc1ccccc1C(=O)NC(Cc1ccccc1)C(=O)CCC(=O)N1CCC[C@H]1C(=O)O (stereo partly drawn) [VII, 5-O-Toluoylamino-4-oxo-6-phenylhexanoyl-L-proline]"
3,650 nM,"CCCCCCCC(=O)NC(Cc1ccccc1)C(=O)CCC(=O)N1CCC[C@H]1C(=O)O (stereo partly drawn) [XX, 5-n-Octanoylamino-4-oxo-6-phenylhexanoyl-L-proline]"
4,1.4 nM,"COc1ccc(CC(NC(=O)c2ccccc2)C(=O)CCC(=O)N2CCC[C@H]2C(=O)O)cc1OC (stereo partly drawn) [VIII, 5-Benzamido-4-oxo-6-(3,4-dimethoxyphenyl)hexanoyl-L-proline]"
5,20 nM,"O=C(CCC(=O)N1CCC[C@H]1C(=O)O)C(Cc1ccccc1)NC(=O)C1CCCO1 (stereo partly drawn) [VI, 5-(2-Tetrahydrofuroylamino)-4-oxo-6-phenylhexanoyl-L-proline]"
6,330 nM,"CC(=O)NC(Cc1ccccc1)C(=O)CCC(=O)N1CCC[C@H]1C(=O)O (stereo partly drawn) [XVIII, 5-Acetylamino-4-oxo-6-phenylhexanoyl-L-proline]"
7,230 nM,"CC(C)C(CC(=O)C(Cc1ccccc1)NC(=O)c1ccccc1)C(=O)N1CCC[C@H]1C(=O)O (stereo partly drawn) [XIV, 5-Benzamido-4-oxo-2-isopropyl-6-phenylhexanoyl-L-proline]"

# The remaining lines, values behind:
row,SMILES,IC50
1,"O=C(NC(Cc1ccccc1)C(=O)CCC(=O)N1CCC[C@H]1C(=O)O)OCc1ccccc1 (stereo partly drawn) [Example III, 5-Benzyloxycarbonylamino-4-oxo-6-phenylhexanoyl-L-proline]",240 nM
2,"CCCCCC(=O)NC(Cc1ccccc1)C(=O)CCC(=O)N1CCC[C@H]1C(=O)O (stereo partly drawn) [Example XIX, 5-n-Hexanoylamino-4-oxo-6-phenylhexanoyl-L-proline]",47 nM
3,"O=C(NC(Cc1cccnc1)C(=O)CCC(=O)N1CCC[C@H]1C(=O)O)c1ccccc1 (stereo partly drawn) [Example XI, 5-Benzamido-4-oxo-6-(3-pyridyl)hexanoyl-L-proline]",5.7 nM
4,"O=C(NC(Cc1ccc(O)cc1)C(=O)CCC(=O)N1CCC[C@H]1C(=O)O)c1ccccc1 (stereo partly drawn) [Example X, 5-Benzamido-4-oxo-6-p-hydroxyphenylhexanoyl-L-proline]",4.7 nM
5,"CCCCOC(=O)NC(Cc1ccccc1)C(=O)CCC(=O)N1CCC[C@H]1C(=O)O (stereo partly drawn) [Example XV, 5-n-Butyloxycarbonylamino-4-oxo-6-phenylhexanoyl-L-proline]",210 nM
6,"O=C(NC(Cc1ccc(OCc2ccccc2)cc1)C(=O)CCC(=O)N1CCC[C@H]1C(=O)O)c1ccccc1 (stereo partly drawn) [Example IX, 5-Benzamido-4-oxo-6-p-benzyloxyphenylhexanoyl-L-proline]",10 nM
7,"CCCCOC(=O)NC(Cc1ccccc1)C(=O)CC(C)C(=O)N1CCC[C@H]1C(=O)O (stereo partly drawn) [Example XVII, 5-n-Butyloxycarbonylamino-4-oxo-2-methyl-6-phenylhexanoyl-L-proline]",33 nM
8,"O=C(NC(Cc1ccccc1)C(=O)CCC(=O)N1CCC[C@H]1C(=O)O)c1ccco1 (stereo partly drawn) [Example V, 5-(2-Furoylamino)-4-oxo-6-phenylhexanoyl-L-proline]",1.4 nM
9,"O=C(NC(Cc1ccccc1)C(=O)CCC(=O)N1CCC[C@H]1C(=O)O)c1ccncc1 (stereo partly drawn) [IV, 5-(4-Pyridyl)carbonylamino-4-oxo-6-phenylhexanoyl-L-proline]",20 nM

# Tested on: angiotensin converting enzyme
# Assay: not given
# Details: literature; cited from earlier work
row,SMILES,inhibition of the converting enzyme (in words)
1,C[C@H](NC(=O)[C@@H](N)Cc1ccccc1)C(=O)N1CCC[C@H]1C(=O)O [phenylalanyl-alanyl-proline] (H-Phe-Ala-Pro-OH),substantial degree of activity
